Experiments:
[1] = test system: mouse melanoma cancer cell line (B16); assay: In vitro cytotoxicity, MTT assay, 48 h continuous drug exposure; type: cell-based; details: B16 cells, 48 h exposure
Description: (§1) In vitro biological activity studies were carried out at the pharmacology division, IICT, Hyderabad. The compounds were evaluated for in vitro anticancer activity against five tumour cell lines derived from five cancer types (breast, cervix, mouse melanoma, lung and liver cancer) as shown in Table 2. For each compound, dose response curves for each cell line were measured at a minimum of five concentrations at 10 fold dilutions. A protocol of 48 h continuous drug exposure was used and a MTT assay was used to estimate cell viability or growth. The concentration causing 50% inhibition (IC50) compared with the control was calculated. Compounds 7a-7l have been evaluated for their in vitro cytotoxicity in five cell lines from five human cancer types. The results are expressed as IC50 determined relative to that of untreated control cells (Table-2).

calf thymus DNA (CT-DNA) = assay: Thermal denaturation studies with duplex-form calf thymus DNA (DNA binding affinity); details: [PBD]:[DNA] molar ratio 1:5, CT-DNA 100 μM, ligand 20 μM, sodium phosphate buffer pH 7.00; for (ΔTm ° C.) after incubation at 37° C. for 0 h: 0 h incubation at 37° C.; for (ΔTm ° C.) after incubation at 37° C. for 18 h: 18 h incubation at 37° C.
Description: Compounds have been subjected to thermal denaturation studies with duplex-form calf thymus DNA (CT-DNA) using a modification of a reported procedure (Newman, M. S. Carcinog-compr. Surv. 1976, 1, 203; (b) Hecht, S. S.; Loy, M.; Hoffman, Carcinog-compr. Surv. 1976, 1, 325). Working solutions in aqueous buffer (10 mM NaH2PO4/Na2HPO4, 1 mM Na2EDTA, pH 7.00+0.01) containing CT-DNA (100 μm in phosphate) and the PBD (20 μm) have been prepared by addition of concentrated PBD solutions in DMSO to obtain a fixed [PBD]/[DNA] molar ratio of 1:5. The DNA-PBD solutions have been incubated at 37° C. for 0 and 18 h prior to analysis. Samples have been monitored at 260 nm using a Beckman DU-800 spectrophotometer fitted with high performance temperature controller, and heated at 1° C. min^−1 in the 40-110° C. range. DNA helix→coil transition temperatures (Tm) have been obtained from the maxima in the d(A260)/dT derivative plots. Drug-induced alterations in DNA melting behavior are given by: ΔTm=Tm(DNA+PBD)−Tm(DNA alone), where the Tm value for the PBD-free CT-DNA is 69.1±0.01.
The DNA binding activity for these novel C8-linked imidazo[1,5-a]pyridine PBD hybrids has been examined by thermal denaturation studies using calf thymus (CT) DNA. […] The data for the compounds 7a-l is included in Table 1 for comparison.

[2] = test system: cervical cancer cell line (Hela); assay: In vitro cytotoxicity, MTT assay, 48 h continuous drug exposure; type: cell-based, human; details: Hela cells, 48 h exposure
Description: as §1

[3] = test system: liver cancer cell line (Hepg2); assay: as above; type: cell-based, human; details: Hepg2 cells, 48 h exposure
Description: as §1

[4] = test system: lung cancer cell line (A549); assay: as above; type: cell-based, human; details: A549 cells, 48 h exposure
Description: as §1

[5] = test system: breast cancer cell line (MCF-7); assay: as above; type: cell-based, human; details: 48 h exposure
Description: as §1

[6] = Homo sapiens, MCF7, MCF-7 cells

Structure (SMILES)	IC50 ([1]; Mus musculus)	(ΔTm ° C.) after incubation at 37° C. for 0 h (calf thymus DNA (CT-DNA))	(ΔTm ° C.) after incubation at 37° C. for 18 h (calf thymus DNA (CT-DNA))	IC50 ([2]; Homo sapiens)	IC50 ([3]; Homo sapiens)	IC50 ([4]; Homo sapiens)	IC50 [5, 6]	IC50 ([2]; Homo sapiens, HeLa, 48 h)	IC50 ([3]; Homo sapiens, HepG2, 48 h)	IC50 [1]	IC50 [2]	IC50 [3]	IC50 [4]	IC50 ([5]; MCF-7 cells)
COc1ccc(-c2nc(C(=O)N3CCNCC3)c3ccccn23)cc1 [4b, [3-(4-methoxyphenyl)imidazo[1,5-a]pyridin-1-yl](piperazino)methanone]	> 100000 nM	1.1 °C	1.2 °C	> 100000 nM	> 100000 nM	> 100 µM	> 100000 nM	–	–	–	–	–	–	–
COc1cc2c(cc1OCCCCCCN1CCN(C(=O)c3nc(-c4ccccc4)n4ccccc34)CC1)N=C[C@@H]1CCCN1C2=O [7d]	1490 nM	7.0 °C	8.0 °C	–	–	12.4 µM	3310 nM	3970 nM	3060 nM	–	–	–	–	–
COc1cc2c(cc1OCCCN1CCN(C(=O)c3nc(-c4ccccc4)n4ccccc34)CC1)N=C[C@@H]1CCCN1C2=O [7a, (11aS)-7-methoxy-8-(3-4-[(3-phenylimidazo[1,5-a]pyridin-yl)carbonyl]piperazinopropoxy)-2,3,5,11a-tetrahydro-1H-benzo[e]pyrrolo[1,2-a]azepin-5-one]	2800 nM	6.0 °C	8.9 °C	–	–	7.1 µM	1200 nM	2100 nM	2700 nM	–	–	–	–	–
O=C(c1nc(-c2ccc(C(F)(F)F)cc2)n2ccccc12)N1CCNCC1 [4c, piperazino3-[4-(trifluoromethyl)phenyl]imidazo[1,5-a]pyridin-1-ylmethanone]	> 100000 nM	0.1 °C	0.4 °C	> 100000 nM	> 100000 nM	> 100 µM	> 100000 nM	–	–	–	–	–	–	–
O=C(c1nc(-c2ccccc2)n2ccccc12)N1CCNCC1 [4a, (3-phenylimidazo[1,5-a]pyridin-1-yl)(piperazino)methanone]	> 100000 nM	1.0 °C	1.2 °C	> 100000 nM	> 100000 nM	> 100 µM	> 100000 nM	–	–	–	–	–	–	–
COc1cccc2c1C(=O)c1c(O)c3c(c(O)c1C2=O)C[C@@](O)(C(=O)CO)C[C@@H]3O[C@H]1C[C@H](N)[C@H](O)[C@H](C)O1 [ADR, adiramycin]	–	–	–	–	–	–	–	–	–	340 nM	130 nM	1850 nM	2.9 µM	1600 nM
C1=CC2=CN=c3ccccc3=CN2C1 [DC-81, pyrrolo[2,1-c][1,4]benzodiazepine]	1830 nM	0.3 °C	0.7 °C	–	–	0.38 µM	2190 nM	2140 nM	2200 nM	–	–	–	–	–
COc1cc2c(cc1OCCCCN1CCN(C(=O)c3nc(-c4ccccc4)n4ccccc34)CC1)N=C[C@@H]1CCCN1C2=O [7b, (11aS)-7-methoxy-8-(4-4-[(3-phenylimidazo[1,5-a]pyridin-yl)carbonyl]piperazinobutoxy)-2,3,5,11a-tetrahydro-1H-benzo[e]pyrrolo[1,2-a]azepin-5-one]	2670 nM	6.0 °C	8.9 °C	–	–	15.9 µM	2870 nM	1240 nM	2830 nM	–	–	–	–	–
COc1cc2c(cc1OCCCCCN1CCN(C(=O)c3nc(-c4ccccc4)n4ccccc34)CC1)N=C[C@@H]1CCCN1C2=O [7c]	1870 nM	7.0 °C	9.0 °C	–	–	–	2120 nM	1660 nM	2700 nM	–	–	3860 nM	–	–

Source: patent US8519123B2, “Pyrrolo[2,1-C][1,4]benzodiazepine linked imidazo[1,5-A]pyridine conjugates as potential antitumour agents and process for the preparation thereof” (Council of Scientific and Industrial Research, priority 2010, dated 2013)
